Experimental data from patent publication US9365608B2, “Method for treating diabetes” (Ohr Pharmaceutical, Inc., priority 2007, dated 2016).
Entries after “also recorded” stand apart in the source; their conditions may differ.

Assays:
Db/db (Lepr^db) mouse [1] = assay: Oral glucose tolerance test (OGTT) in the diabetic Db/db mouse; type: in vivo; conditions: for % Reduction in OGTT Above Baseline AUC / Reduction in ABAUC compared to saline control (in words): Db/db mice; for % Reduction in OGTT Above Baseline AUC: 5 or 10 mg/kg ip every 3 days x4, day 14, oral glucose 1.5 g/kg, 0-120 min, vs saline; for Reduction in ABAUC compared to saline control (in words): OGTT study day 14, p<0.05; for Response in glucose tolerance test vs saline treated controls (FIG. 3 legend): legend says ob/ob mice
Procedure: (§1) To determine in vivo efficacy of the steroid analogues a Db/db (Lepr^db) in mouse model was used. Db/db mice are extensively used for screening of antidiabetic agents. Db/db mice were treated with either saline or 5 or 10 mg/kg steroid analogue every 3 days for a total of 4 doses via ip injection. Body weight, glucose tolerance and fasting blood glucose levels were measured for each group during the study. Each group had at least an N of 4 animals. All reagents and lab animals are commercially available.
Also on study day 14, an OGTT was performed to assess glucose tolerance. At time 0, an oral glucose challenge (1.5 g/kg) was administered by oral gavage. At timepoints 0, 15, 30, 60, 90, 120 min post glucose load, 25 μl of whole blood was withdrawn from the tail vein of the animal and the glucose level was measured using a glucose analyzer. The glucose concentration vs time was plotted (FIG. 2). Above baseline area under the curve (ABAUC) of the glucose excursion time curve was determined using trapezoidal rule analyses.

Db/db (Lepr^db) mouse [2] = assay: Body weight change in the diabetic Db/db mouse; type: in vivo; conditions: Db/db mice, 5 or 10 mg/kg ip every 3 days x4; for % Change in Body Weight: vs body weight on study day 0
Procedure: as §1
Starting at study day 0, body weight measurements were taken every day for each group for up to 30 days. Percent change in body weight was calculated as the fractional response of body weight on study day X over the original body weight on study day 0.

Db/db (Lepr^db) mouse [3] = assay: Fasting blood glucose in the diabetic Db/db mouse; type: in vivo; conditions: Db/db mice; for % Reduction in FBG: 5 or 10 mg/kg ip every 3 days x4 doses, study day 14 after overnight fast, vs saline; for Reduction of FBG levels compared to saline control (in words): study day 14
Procedure: as §1
On study day 13, all animal groups were fasted overnight. On study day 14, 25 μL of whole blood was collected and analyzed for the glucose level (mg/dL) using a glucose analyzer.

full length TCPTP = molecular target: T1, full length TCPTP (Homo sapiens, UniProt P17706); assay: Inhibition of TCPTP by steroid analogues (pNPP hydrolysis); type: biochemical; conditions: 200 μM inhibitor; pNPP substrate
T1 construct: except full length TCPTP was used as the enzyme
T1 sequence (P17706 1-415): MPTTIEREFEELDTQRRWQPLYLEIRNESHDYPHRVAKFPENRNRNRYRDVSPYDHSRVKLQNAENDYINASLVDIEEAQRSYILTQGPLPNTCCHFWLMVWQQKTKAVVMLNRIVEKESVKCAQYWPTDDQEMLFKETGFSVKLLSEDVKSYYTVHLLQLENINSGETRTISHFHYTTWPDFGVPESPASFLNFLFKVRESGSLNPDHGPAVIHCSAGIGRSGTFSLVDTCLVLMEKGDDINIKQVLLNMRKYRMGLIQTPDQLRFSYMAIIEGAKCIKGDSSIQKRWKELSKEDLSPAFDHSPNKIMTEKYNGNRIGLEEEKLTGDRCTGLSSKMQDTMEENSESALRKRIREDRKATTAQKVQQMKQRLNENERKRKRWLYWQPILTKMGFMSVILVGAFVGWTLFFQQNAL
Procedure: (§2) The steroid analogues were tested for inhibition against the commercially available full length tyrosine phosphatase PTP1B. The ability of each analogue to inhibit the activity of PTP1B was measured in the presence of 10 μM of the steroid analogue. The assay uses para-nitro-phenyl phosphate (pNPP), a non-specific substrate to assess phosphatase activity. Phosphatase activity was based on the ability of PTP 1B to catalyze the hydrolysis of pNPP to p-nitrophenol (pNP).
The steroid analogues were also tested for their ability to inhibit the tyrosine phosphatase TCPTP as an indication of their potential toxicity by the inhibition of the immune response. The TCPTP inhibition assay was done in the same manner as the PTP1B assay except full length TCPTP was used as the enzyme and the inhibitor was at a concentration of 200 μM. The results of the TCPTP inhibition assays are shown in Table 1, column D and show three compounds that inhibit TCPTP less than 50% even at a 20 fold greater concentration.

[4] = molecular target: T2, full length tyrosine phosphatase PTP1B (Homo sapiens, UniProt P18031); assay: Inhibition of PTP1B by steroid analogues (pNPP hydrolysis, absorbance 405 nm); type: biochemical; conditions: read-out: PTP1B Inhibition (5 μM)
T2 construct: commercially available full length tyrosine phosphatase PTP1B; purchased
T2 sequence (P18031 1-435): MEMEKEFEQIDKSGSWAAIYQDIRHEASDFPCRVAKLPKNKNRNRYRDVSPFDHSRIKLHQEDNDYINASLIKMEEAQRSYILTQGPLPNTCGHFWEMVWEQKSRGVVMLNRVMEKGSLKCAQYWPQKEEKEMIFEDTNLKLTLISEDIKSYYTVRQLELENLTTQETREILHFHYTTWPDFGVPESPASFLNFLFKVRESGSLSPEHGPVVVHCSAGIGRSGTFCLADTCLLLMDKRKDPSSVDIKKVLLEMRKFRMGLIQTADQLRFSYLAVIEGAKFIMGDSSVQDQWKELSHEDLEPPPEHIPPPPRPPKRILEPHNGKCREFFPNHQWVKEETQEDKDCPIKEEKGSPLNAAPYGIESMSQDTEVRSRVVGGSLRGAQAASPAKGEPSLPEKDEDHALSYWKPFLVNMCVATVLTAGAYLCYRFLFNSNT
Procedure: as §2, with “The ability of each analogue to inhibit the activity of PTP1B was measured in the presence of 10 μM of the steroid analogue.” left out

[5] = test system: Insulin Receptor β (IR-β) in the hypothalamus; assay: Phosphorylation of IR-β in the rat hypothalamus (IP / anti-pTyr western blot); type: in vivo; conditions: male SD rats, 10 mg/kg i.p. Day 0; insulin 100 U/kg i.p. Day 1; 15 or 30 min post-dose; listed as MSI-1436, 10 mg/kg
Procedure: Male SD rats were divided into 8 groups with 4 rats per group. All rats were fed ad libitum normal rodent chow and regular tap water. On Day 0, rats were dosed via intraperitoneal (i.p.) injection with 10 mg/kg MSI-1436 or 0.9% saline. Rats were fasted overnight from Day 0 to Day 1. On Day 1, animals were dosed i.p. with 0.9% saline or 100 U/kg of insulin. At 15 or 30 minutes post-dose (Day 1), animals were sacrificed and the hypothalamuses were harvested, transferred to 1.5 mL eppendorf tubes, and frozen in liquid nitrogen. Samples were stored at −80° C. until further analysis. Hypothalamuses were pooled (3-4 per group) and homogenized in 2-mL Wheaton vials and Dounce homogenizers in 1 mL of tissue extraction reagent plus phosphatase and protease inhibitors. Lysates were centrifuged for 10 minutes at 4° C. (14,000 rpm) and the supernatants were transferred to new 1.5 mL eppendorf tubes. Lysates (500 μg) were immunoprecipitated for Insulin Receptor β overnight at 4° C. The samples were then bound to Protein A according to standard protocols for 4 hours at 4° C. […]
500 μg of total protein from each sample was loaded onto a 1.5 mm 4-12% Bis-Tris Novex gel and run at 175V for approximately 1 hr in 1×MOPS buffer. […] The ratio of the pTyr-IRβ band to the IRβ band was computed in Excel and the fold change in IR phosphorylation determined. […]

[6] = previously described in US patents; cited from earlier work

| Structure (SMILES) | % Reduction in OGTT Above Baseline AUC (Db/db (Lepr^db) mouse [1]) | Reduction in ABAUC compared to saline control (in words) (Db/db (Lepr^db) mouse [1]) | % Change in Body Weight (Db/db (Lepr^db) mouse [2]) | % Reduction in FBG (Db/db (Lepr^db) mouse [3]) | Reduction of FBG levels compared to saline control (in words) (Db/db (Lepr^db) mouse [3]) | inhibition at 200 µM (full length TCPTP) | also measured |
| --- | --- | --- | --- | --- | --- | --- | --- |
| CC(C)[C@@H](CC[C@@H](C)[C@H]1CCC2C3C(CC[C@@]21C)[C@@]1(C)CC[C@H](NCCCNCCCCNCCCN)C[C@H]1C[C@H]3O)OS(=O)(=O)O (stereo partly drawn) [Compound 1701] | 49% | significant reduction | 3% | 40% | significant reduction |  | Response in glucose tolerance test vs saline treated controls (FIG. 3 legend) (Db/db (Lepr^db) mouse [1]): respond significantly faster; Weight loss (in words) (Db/db (Lepr^db) mouse [2]): do not produce weight loss |
| COC(=O)CC[C@@H](C)[C@H]1CCC2C3C(CC[C@@]21C)[C@@]1(C)CC[C@H](NCCCNCCCCN)C[C@@H]1C[C@H]3O (stereo partly drawn) [Compound 1320] |  |  |  |  |  | 0% |  |
| CC(C)[C@@H](CC[C@@H](C)[C@H]1CCC2C3C(CC[C@@]21C)[C@@]1(C)CC[C@H](NCCCNCCCCNCCCN)C[C@@H]1C[C@H]3O)OS(=O)(=O)O (stereo partly drawn) [Compound 1873] | 47% | significant reduction | 4% | 41% | significant reduction |  | Response in glucose tolerance test vs saline treated controls (FIG. 3 legend) (Db/db (Lepr^db) mouse [1]): respond significantly faster; Weight loss (in words) (Db/db (Lepr^db) mouse [2]): do not produce weight loss |
| CNCCNC(C)[C@H]1CCC2C3CC=C4CC(O)CC[C@]4(C)C3CC[C@@]21C (stereo partly drawn) [Compound 2498] |  |  |  |  |  |  | inhibition at 5 µM [4]: 13% |
| CC(C)[C@@H](CC[C@@H](C)[C@H]1CCC2C3C(CC[C@@]21C)[C@@]1(C)CC[C@H](NCCCNCCCCNCCCN)C[C@@H]1C[C@H]3O)OS(=O)(=O)O (stereo partly drawn) [Compound 1436] | 83% | significant reduction | −8% | 64% | significant reduction | 0% | Amount of phospho-Tyrosine on insulin stimulated IR-β in the hypothalamus (fold change, pTyr-IRβ/IRβ) [5]: can increase the level; also recorded: nearly doubles; Weight gain and appetite in animal models [6]: inhibit weight gain and suppress appetite |
| CC(C)[C@@H](CC[C@@H](C)C1CCC2C3C(CC[C@@]21C)[C@@]1(C)CCC(=O)C[C@H]1C[C@@H]3O)S(=O)(=O)O (stereo partly drawn) [Compound 2347] |  |  |  |  |  |  | inhibition at 5 µM [4]: 27% |
| CC(C)[C@H](OS(=O)(=O)O)[C@@H](C)[C@H]1CCC2C3C(CC[C@@]21C)[C@@]1(C)CC[C@H](NCCCNCCCCNCCCN)C[C@@H]1C[C@H]3O (stereo partly drawn) [Compound 1814] | 60% | significant reduction |  | 46% | significant reduction |  |  |
| CC(C)CCC[C@@H](C)[C@H]1CCC2C3CC[C@H]4C[C@@H](NCCCNCCCCNCCCN)CC[C@]4(C)C3CC[C@@]21C (stereo partly drawn) [Compound 1303] |  |  |  |  |  | 83% |  |
| CC(C)[C@@H](CC[C@@H](C)[C@H]1CCC2C3C(CC[C@@]21C)[C@@]1(C)CCC(O)C[C@H]1C[C@H]3O)OS(=O)(=O)O (stereo partly drawn) [Compound 2459] |  |  |  |  |  |  | inhibition at 5 µM [4]: 17% |
| CC(C)CCC[C@@H](C)[C@H]1CCC2C3C(CC[C@@]21C)[C@@]1(C)CC[C@H](NCCCNCCCCN)C[C@@H]1C[C@H]3O (stereo partly drawn) [Compound 1371] |  |  |  |  |  | 0% |  |
| COC(=O)CC[C@@H](C)[C@H]1CCC2C3C[C@@H](O)[C@H]4C[C@@H](NCCN)CC[C@]4(C)C3CC[C@@]21C (stereo partly drawn) [Compound 1431] | 47% | significant reduction | −7% | 55% | significant reduction |  | Weight loss (in words) (Db/db (Lepr^db) mouse [2]): weight loss similar to 1436 |
| C[C@H](CCS(=O)(=O)O)[C@H]1CCC2C3CC[C@H]4C[C@@H](NCCCNCCCCN)CC[C@]4(C)C3CC[C@@]21C (stereo partly drawn) [Compound 1370] |  |  |  |  |  | 44% |  |
